# Results: patent US5681695A, “Method for increasing specificity in competitive immunoassays” (priority 1994, dated 1997)
# Assays:
# [1] = tested on: anti-HBc; assay: CORAB radioimmunoassay for anti-HBc (competitive), with reducing agent added to the sample; format: binding, human; details: for inhibition in the Corab assay: presence of metabisulfite
# Procedure: 0.1 ml samples in groups I and II were placed in duplicate reaction wells, along with negative and positive controls, and 10 ul of 0.3% 2-mercaptoethanol (2-ME) in H2 O was added to one each of the duplicates, while 10 ul H2 O was added to the other. 0.1 ml of ^125 I-labeled anti-HBc was added to all wells, followed by an HBcAg-coated 1/4 inch polystyrene bead to all wells. Trays were gently shaken and allowed to incubate overnight at room temperature. All beads were washed 3 times with distilled water and transferred to test tubes for counting for 1 minute in a gamma scintillation counter. The positivity or negativity of each was calculated, as was the degree (%) inhibition from negative control for each specimen both with and without reducing reagent according to the formula: [formula] By this calculation, a sample giving a value equal to or greater than 50% is judged as positive in the test. The effect of the addition of the reducing reagents to the specimens was evaluated by several criteria:
# Plasma samples designated 25, 31, 76, 91, 177 and 189 were tested with a commercially available anti-HBc kit (Corab®, Abbott Laboratories, North Chicago, Ill.) with and without addition of 10 ul of a reducing agent, 0.5M sodium metabisulfite. Also, as in Example 4, samples were tested with and without addition of 26.3 ul of a positive anti-HBc sample (Panel 5). […] Samples 31 and 91 are discrepant samples which are confirmed as negative upon addition of the reducing agent.
# [2] = tested on: anti-HBc; assay: Microparticle chemiluminescence immunoassay for anti-HBc, with cysteine; format: binding, human
# Procedure: Recombinant DNA hepatitis B core antigen (rHBcAg) was coupled to carboxylated polystyrene latex microparticles (Seragen Diagnostics, Indianapolis, Ind., 0.188 um) using a two-step procedure. First, purified polyclonal human anti-HBc at 2.7 ug/mg latex particles in the presence of normal human serum (1.0 ul/mg) was coupled using 1-ethyl-3-(3-dimethylaminopropyl) carbodiimide (EDAC, 43 ug/mg) in 0.015M MES buffer (2-[N-morpholino] ethanesulfonic acid), pH 4.8, for 2 hours at room temperature. Bangs, "Uniform Latex Particles", Seragen Diagnostics, 1984. The antibody undercoated particles were then washed three times in 0.1M Tris buffer, pH 7.2, containing 0.9% NaCl, 0.03% EDTA and 0.05% Tween-20 by centrifugation (40,000×g for 20 minutes) and resuspended in 0.1M Tris buffer, pH 7.2, containing 0.9% NaCl, 0.03% EDTA and 0.03% bovine serum albumin. rHBcAg (0.2 ug/mg) was then immunologically adsorbed on the undercoated particles by slow rotation overnight at room temperature. Particles were washed three times as before and dispersed through a 25 gauge needle and stored in 0.01M sodium phosphate, pH 7.2, containing 0.15M NaCl, 0.1% bovine serum albumin, 0.01% Tween-20 and 0.1% sodium azide (Microparticle Diluent). Percent solids was determined by light scattering at 500 nanometers. Coated particles were stored concentrated (typically 5-10% solids) and diluted in storage buffer to a working concentration (0.036%) before each assay. In an alternative method, rHBcAg was coupled directly to the microparticles by the EDAC method. The anti-HBc undercoating method is preferred.
# Acridinium-labeled purified anti-HBc (human) was prepared using an EDAC coupling procedure on the active ester. Briefly, 1 mg of B-alanine acridinium was dissolved in 100 ul anhydrous DMF and activated by sequential addition of 50 ul N-hydroxylsuccinimide (NHS) (5.75 mg/ml) and 50 ul EDAC (19.2 mg/ml) (molar ratio NHS:EDAC=1:2). The reaction proceeded in the dark at room temperature for 30 minutes. Protein A purified human anti-HBc was dialyzed (3×) against PBS, 0.5% CHAPS, pH 6.3, overnight at 2°-8° C. Activated acridinium was added to dialyzed antibody (30:1 molar excess) and the reaction mixture stirred for 30 minutes at room temperature. After dialysis versus the same buffer, the preparation was centrifuged and the supernatant chromatographed on a Beckman TSK 250 HPLC column equilibrated with the same buffer. Individual fractions (1 ml) were analyzed by UV spectroscopy at 369 and 280 nm to determine incorparation of acridinium (typically 3:1).
# 100 ul duplicates of samples including a sensitivity panel sample (1.23 Paul Erhlich Units/ml, Panel 7), two samples, S9 and S14, which were similar in anti-HBc reactivity to Group II samples described above, and negative and positive controls were added to a microtiter plate. […] 50 ul of the HBcAg-coated microparticles (0.036% solids) were added to all wells. This reaction mixture was incubated for 20 minutes in a 40° water bath.
# 166 ul of each reaction mixture was transferred to a microparticle capture/flow-through glass fiber filter funnel (Abbott Laboratories, North Chicago, Ill.) which was prewetted with 50 ul of 0.1% Tween-20. Each capture membrane was then washed twice with 50 ul of 0.1% Tween-20. 20 ul of the acridinium-labeled anti-HBc (375 ng/ml) was added to the surface of each capture membrane and incubated at room temperature for 20 minutes. The capture membranes were then washed twice with 100 ul and once with 50 ul of 0.1% Tween-20.
# The membranes were then transferred to a chemiluminescence reader where approximately 100 ul of a trigger solution comprising 0.3% H2 O2 in 0.25N NaOH was delivered to each membrane. The amount of light generated by the acridinium-labelled reagent bound to the microparticles was determined and is inversely proportional to the amount of anti-HBc present in the sample. […] There was a 10-20% signal loss in the negative control in the presence of cysteine. […]
# [3] = tested on: anti-HBc; assay: Sephacryl S-300 fractions assayed for anti-HBc activity by microparticle assay, with cysteine; format: binding
# Procedure: Briefly, 2 ml of recalcified Sample 209 was applied to a Sephacryl S-300 column (2.5×50 cm) equilibrated with PBS. 2.5 ml fractions were collected at a flow rate of 20 ml/hr. Fractions were assayed using the microparticle assay of Example 3 except that an approximately 5 fold increase in sensitivity was implemented by using increasing incubation time and decreasing the amount of anti-HBc conjugate. […] The first inhibitory peak was not detected when assayed in the presence of cysteine. The second and major inhibitory peak, which co-eluted with the IgG protein peak, was unaffected by cysteine treatment. The immunoglobulin G associated anti-HBc activity is specific for non-acute hepatitis B infection.
# 3 ml of a borderline positive sample (Sample 9) was tested according to the procedure of Example 9. […] In the absence of reducing agent, a single inhibitory peak was seen near the void volume of the column. This peak was not detected when assayed in the presence of cysteine, and was clearly resolved form the IgG protein peak. This non-IgG reactivity is not believed to be a result of Hepatitis B infection and is therefore nonspecific.
structure (smiles),measurement,setting,value
"O=S([O-])S(=O)(=O)[O-].[Na+].[Na+] [MBS, sodium metabisulfite]",<cpm>,"[1]; 10 ul 0.5M MBS, NC",20856 cpm
same,% I (percent inhibition),"[1]; 10 ul 0.5M MBS, NC spiked with Panel 5",73.6%
same,<cpm>,"[1]; 10 ul 0.5M MBS, PC",350 cpm
same,% I (percent inhibition),"[1]; 10 ul 0.5M MBS, Panel 7",71.0%
same,<Sx*> % I,"[1]; 10 ul 0.5M MBS, mean of samples spiked with Panel 5",74.8%
same,<Sx> % I,"[1]; 10 ul 0.5M MBS, mean of unspiked samples",11.4%
same,% I (percent inhibition),"[1]; 10 ul 0.5M MBS, sample OBI 25",7.6%
same,% I (percent inhibition),"[1]; 10 ul 0.5M MBS, sample OBI 25 spiked with Panel 5",74.3%
same,% I (percent inhibition),"[1]; 10 ul 0.5M MBS, sample OBI 31",10.4%
same,% I (percent inhibition),"[1]; 10 ul 0.5M MBS, sample OBI 31 spiked with Panel 5",75.6%
same,% I (percent inhibition),"[1]; 10 ul 0.5M MBS, sample OBI 76",5.8%
same,% I (percent inhibition),"[1]; 10 ul 0.5M MBS, sample OBI 76 spiked with Panel 5",74.2%
same,% I (percent inhibition),"[1]; 10 ul 0.5M MBS, sample OBI 91",10.8%
same,% I (percent inhibition),"[1]; 10 ul 0.5M MBS, sample OBI 91 spiked with Panel 5",75.0%
same,% I (percent inhibition),"[1]; 10 ul 0.5M MBS, sample OBI 177",31.5%
same,% I (percent inhibition),"[1]; 10 ul 0.5M MBS, sample OBI 177 spiked with Panel 5",74.4%
same,% I (percent inhibition),"[1]; 10 ul 0.5M MBS, sample OBI 189",2.5%
same,% I (percent inhibition),"[1]; 10 ul 0.5M MBS, sample OBI 189 spiked with Panel 5",75.1%
same,effect on anti-HBc positive samples,[1]; Panel 7 and samples spiked with Panel 5,not affected
same,absolute values for negative and positive controls,[1]; Table I,not affected significantly
same,inhibition in the Corab assay,[1]; Sample 9,5.2%
same,inhibition in the Corab assay,[1]; Sample 209,86.3%
N[C@@H](CS)C(=O)O [cysteine],COUNTS,"[2]; 200 mM cysteine solution (EDTA, DTT), Negative Control",23992 COUNTS
same,% I (percent inhibition),"[2]; 200 mM cysteine solution (EDTA, DTT), Panel 7",76.3%
same,% I (percent inhibition),"[2]; 200 mM cysteine solution (EDTA, DTT), Plasma S9",3.2%
same,% I (percent inhibition),"[2]; 200 mM cysteine solution (EDTA, DTT), Plasma S14",3.0%
same,COUNTS,"[2]; 200 mM cysteine solution (EDTA, DTT), Positive Control",5000 COUNTS
same,<cpm>,"[2]; 10 ul 0.75M cysteine fresh, NC",20856 cpm
same,% I (percent inhibition),"[2]; 10 ul 0.75M cysteine fresh, NC spiked with Panel 5",80.8%
same,<cpm>,"[2]; 10 ul 0.75M cysteine fresh, PC",4035 cpm
same,% I (percent inhibition),"[2]; 10 ul 0.75M cysteine fresh, Panel 7",80.7%
same,average percent inhibition,"[2]; 10 ul 0.75M cysteine fresh, plasma samples spiked with Panel 5",71.5%
same,% I (percent inhibition),"[2]; 10 ul 0.75M cysteine fresh, sample 52",6.2%
same,% I (percent inhibition),"[2]; 10 ul 0.75M cysteine fresh, sample 52 spiked with Panel 5",67.9%
same,% I (percent inhibition),"[2]; 10 ul 0.75M cysteine fresh, sample 71",36.0%
same,% I (percent inhibition),"[2]; 10 ul 0.75M cysteine fresh, sample 71 spiked with Panel 5",69.9%
same,% I (percent inhibition),"[2]; 10 ul 0.75M cysteine fresh, sample 166",54.0%
same,% I (percent inhibition),"[2]; 10 ul 0.75M cysteine fresh, sample 166 spiked with Panel 5",80.8%
same,% I (percent inhibition),"[2]; 10 ul 0.75M cysteine fresh, sample 189",11.1%
same,% I (percent inhibition),"[2]; 10 ul 0.75M cysteine fresh, sample 189 spiked with Panel 5",70.5%
same,% I (percent inhibition),"[2]; 10 ul 0.75M cysteine fresh, sample 277",-2.5%
same,% I (percent inhibition),"[2]; 10 ul 0.75M cysteine fresh, sample 277 spiked with Panel 5",68.6%
same,average percent inhibition,"[2]; 10 ul 0.75M cysteine fresh, unspiked plasma samples",21.0%
same,mean counts,"[2]; Example 5, + cysteine reagent, Negative control",24494 counts
same,% I (percent inhibition),"[2]; Example 5, + cysteine reagent, Panel 5",86.7%
same,% I (percent inhibition),"[2]; Example 5, + cysteine reagent, Panel 6",85.3%
same,% I (percent inhibition),"[2]; Example 5, + cysteine reagent, Panel 7",77.2%
same,% I (percent inhibition),"[2]; Example 5, + cysteine reagent, Panel 8",53.5%
same,% I (percent inhibition),"[2]; Example 5, + cysteine reagent, Panel 9",21.0%
same,mean counts,"[2]; Example 5, + cysteine reagent, Positive control",5678 counts
same,activity (interfering factor) in Group II type samples,"[2]; S9 and S14, presence of cysteine",eliminated
same,signal loss in the negative control,[2]; presence of cysteine,10-20%
same,single inhibitory peak near the void volume,"[3]; Sample 9, presence of cysteine",not detected
same,second and major inhibitory peak (co-eluted with IgG),"[3]; Sample 209, cysteine treatment",unaffected
same,first inhibitory peak,"[3]; Sample 209, presence of cysteine",not detected
